The source of these data is patent publication US9663507B1, “Crystallisation of thiamine hydrochloride” (Topchem Pharmaceuticals Limited, priority 2016, dated 2017).

Counter-ions that a name gives are not always drawn. Like-named read-outs stand apart in the source and are kept apart here. Some results are limits rather than exact numbers.

The conditions of data set [1]: exposure to humidity, cited from earlier work.
The conditions of data set [2]: for Related Substances: Chlorothiamine (Impurity C) / Related Substances: Thiamine sulfate ester (Impurity A) / Related Substances: Desmethylthiamine (Impurity B) / Related Substances: Total Impurities: EP 8.6 HPLC Method; for Related Substances: Chlorothiamine (Impurity C) / Related Substances: Thiamine sulfate ester (Impurity A): limit NMT 0.15%; for Related Substances: Desmethylthiamine (Impurity B): limit NMT 0.3%; for Related Substances: Total Impurities: limit NMT 0.5%; for Assay: limit 98.0%-102.0%; for Sulfates: limit EP 8.6 NMT 300 ppm; for Solution S: limit EP 8.6 Practically Clear and Odorless; for Heavy Metals / Appearance: limit Meets EP 8.6; for ID: Chloride / ID: FTIR / Limit of Nitrate: limit Meets USP 39; for Absorbance of Solution: limit USP 39 NMT 0.025 Abs; for Residue on Ignition: limit USP 39 NMT 0.2%; for Water: limit USP 39 NMT 5.0%; for pH: limit USP 39 pH 2.7-3.4.

For data set [3] the following is noted: cited from earlier work.
The mark [4] stands for this setting: 36 Months, listed as T111116, hydrochloride monohydrate.
The mark [5] stands for this setting: 36 Months, listed as T111201, hydrochloride monohydrate.
Setting [6] is: 36 Months, listed as T111202, hydrochloride monohydrate.
Setting [7] is: Time 0, listed as T111116, hydrochloride monohydrate.
Where [8] appears, read: Time 0, listed as T111201, hydrochloride monohydrate.
The mark [9] stands for this setting: Time 0, listed as T111202, hydrochloride monohydrate.

Turning to `Cc1ncc(C[n+]2csc(CCO)c2C)c(N)n1` [Thiamine hydrochloride monohydrate], the Hygroscopicity result in data set [1] (hydrochloride monohydrate) is reported as “hygroscopic”. Further, in data set [2] (36 Months), the “Related Substances: Chlorothiamine (Impurity C)” value is on record as below 0.05%, the “Related Substances: Thiamine sulfate ester (Impurity A)” value (from here on “Related Substances … (Impurity A)”) was found to be 0.07%, the Sulfates entry is listed as “Complies” and the “Solution S” value is given as “Complies”. In data set [2] (36 Months), the “Heavy Metals” value was “Complies”, the “ID: Chloride” value is “Complies”, the “ID: FTIR” value is “Complies” and the “Limit of Nitrate” value was “Complies”. The “Residue on Ignition” value in data set [2] (36 Months) was determined as 0.0%. Further, in data set [2] (setting [4]), the “Related Substances: Desmethylthiamine (Impurity B)” value (shortened to “Related Substances … (Impurity B)”) was determined as 0.07%, the “Related Substances: Total Impurities” value came out at 0.13%, the Assay is 99.8% and the “Absorbance of Solution” value was determined as 0.004 Abs. Moreover, in data set [2] (setting [4]), the Water came to 3.7% and the pH entry was “pH 2.9”. Further, in data set [2] (setting [5]), the “Related Substances … (Impurity B)” value worked out at 0.07%, the “Related Substances: Total Impurities” value came out at 0.14%, the Assay is recorded as 99.6% and the “Absorbance of Solution” value was 0.013 Abs. In addition, in data set [2] (setting [5]), the Water stood at 2.7% and the pH result was “pH 3.0”. Moreover, in data set [2] (setting [6]), the “Related Substances … (Impurity B)” value was 0.06%, the “Related Substances: Total Impurities” value was 0.13%, the Assay is 99.1% and the “Absorbance of Solution” value was determined as 0.007 Abs. Further, in data set [2] (setting [6]), the Water came out at 4.0% and the pH result was “pH 3.1”. Besides, the Appearance result in data set [2] (36 Months, sealed foil lined polypropylene bags) is on record as “Complies”. In addition, in data set [2] (Time 0), the “Related Substances: Chlorothiamine (Impurity C)” value is on record as below 0.05%, the Sulfates entry is listed as “Complies”, the “Solution S” value is reported as “Complies” and the Appearance result is given as “Complies”. Besides, in data set [2] (Time 0), the “Heavy Metals” value was “Complies”, the “ID: Chloride” value is “Complies”, the “ID: FTIR” value was “Complies” and the “Limit of Nitrate” value is “Complies”. Moreover, the “Residue on Ignition” value in data set [2] (Time 0) is on record as 0.0%. In data set [2] (setting [7]), the “Related Substances … (Impurity A)” value was below 0.05%, the “Related Substances … (Impurity B)” value was below 0.05%, the “Related Substances: Total Impurities” value is “Complies” and the Assay amounted to 99.0%. Also, in data set [2] (setting [7]), the “Absorbance of Solution” value worked out at 0.005 Abs, the Water came to 3.2% and the pH result is “pH 3.3”. In addition, in data set [2] (setting [8]), the “Related Substances … (Impurity A)” value was 0.07%, the “Related Substances … (Impurity B)” value was 0.07%, the “Related Substances: Total Impurities” value is 0.4% and the Assay was 98.6%. In data set [2] (setting [8]), the “Absorbance of Solution” value is 0.008 Abs, the Water turned out to be 2.0% and the pH entry was “pH 3.2”. Further, in data set [2] (setting [9]), the “Related Substances … (Impurity A)” value stood at 0.06%, the “Related Substances … (Impurity B)” value came out at 0.06%, the “Related Substances: Total Impurities” value is 0.12% and the Assay worked out at 99.2%. In data set [2] (setting [9]), the Water is 3.3% and the pH entry is “pH 3.2”. Further, the “Absorbance of Solution” value in data set [2] (Time 0, unit printed as %) is listed as 0.007%. Also, in data set [2] (protected from moisture, […], USP or EP testing), the Storage stability entry is reported as “stability up to three years”.

Turning to `Cc1ncc(C[n+]2csc(CCO)c2C)c(N)n1` [anhydrous form, Thiamine hydrochloride], the Hygroscopicity result in data set [1] (hydrochloride) is “readily absorbs moisture to form the monohydrate and hemihydrate”.

With `Cc1ncc(C[n+]2csc(CCO)c2C)c(N)n1` [Example 1, Thiamine Hydrochloride Hemihydrate], the Hygroscopicity result in data set [1] (Hydrochloride Hemihydrate) is “less hygroscopic”.

Regarding `Cc1ncc(C[n+]2csc(CCO)c2C)c(N)n1` [Thiamine hydrochloride], the Solubility in water result in data set [3] was “high solubility in water”.
